According to patent US20170066759A1, “AROMATIC 5-MEMBERED HETEROCYCLIC DERIVATIVE HAVING TRPV4-INHIBITING ACTIVITY” (Shionogi & Co., Ltd., priority 2012, published 2017):

Biological target: T1, human TRPV4 (hTRPV4/CHO cells) (Homo sapiens, UniProt Q9HBA0)
T1 construct: expressed in transfected cells; host or cells: CHO-K1
Assay: Test Example 1: TRPV4 inhibitory activity (IC50 value), 4α-PDD stimulation, Fluo4 calcium fluorescence (FLIPR TETRA)
Format: cell-based
Conditions: Test Example 1, 4α-PDD stimulation, read-out: Test 1 IC50

T1 sequence (Q9HBA0 whole entry): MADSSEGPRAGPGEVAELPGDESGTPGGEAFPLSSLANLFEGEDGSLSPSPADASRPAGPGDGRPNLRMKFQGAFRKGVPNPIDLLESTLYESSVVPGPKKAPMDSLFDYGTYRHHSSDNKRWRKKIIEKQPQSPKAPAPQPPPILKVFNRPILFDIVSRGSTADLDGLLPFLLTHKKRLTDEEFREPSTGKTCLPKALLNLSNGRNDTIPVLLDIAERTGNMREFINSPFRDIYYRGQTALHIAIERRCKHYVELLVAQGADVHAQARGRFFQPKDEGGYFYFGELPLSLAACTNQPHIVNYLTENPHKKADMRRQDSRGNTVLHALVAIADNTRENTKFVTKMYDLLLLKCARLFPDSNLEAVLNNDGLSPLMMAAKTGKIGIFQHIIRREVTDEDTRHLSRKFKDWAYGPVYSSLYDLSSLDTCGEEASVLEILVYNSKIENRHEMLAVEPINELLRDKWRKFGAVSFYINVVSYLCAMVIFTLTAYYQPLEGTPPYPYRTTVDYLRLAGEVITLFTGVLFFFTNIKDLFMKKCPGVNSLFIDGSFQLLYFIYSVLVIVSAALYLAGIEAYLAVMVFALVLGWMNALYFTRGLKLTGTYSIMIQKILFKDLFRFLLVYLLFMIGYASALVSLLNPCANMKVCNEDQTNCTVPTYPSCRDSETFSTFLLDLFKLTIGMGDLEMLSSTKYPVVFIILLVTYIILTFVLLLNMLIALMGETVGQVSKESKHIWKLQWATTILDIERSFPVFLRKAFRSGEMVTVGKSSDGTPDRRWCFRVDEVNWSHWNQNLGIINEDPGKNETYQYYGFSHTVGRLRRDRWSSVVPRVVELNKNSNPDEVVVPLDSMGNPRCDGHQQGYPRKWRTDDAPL

Cc1nc(C)c(-c2csc(NC(=O)Cc3ccc(S(=O)(=O)N(C)c4cccnc4)cc3)n2)s1 [Compound I-165]
IC50: 100 to 1000 nM

Cc1nc(C)c(-c2csc(NC(=O)Cn3cc(-c4ccccc4S(C)(=O)=O)cn3)n2)s1 [Compound I-166]
IC50: 100 to 1000 nM

Cc1nc(C)c(-c2csc(NC(=O)Cn3cc(-c4cncnc4)cn3)n2)s1 [Compound I-167]
IC50: 1000 to 8000 nM

Cc1nc(C)c(-c2csc(NC(=O)Cn3cc(-c4ccncc4)cn3)n2)s1 [Compound I-168]
IC50: 100 to 1000 nM

Cc1nc(C)c(-c2csc(NC(=O)Cn3cc(-c4ccccc4N(C)C)cn3)n2)s1 [Compound I-169]
IC50: < 100 nM

Cc1nc(C)c(-c2csc(NC(=O)CN3CCOC(c4ccccc4)C3)n2)s1 (centres unmarked) [Compound I-170]
IC50: 100 to 1000 nM

Cc1nc(CO)sc1-c1csc(NC(=O)CN2CCC(c3ccccc3)CC2)n1 [Compound I-171]
IC50: 100 to 1000 nM

Cc1nc(CO)sc1-c1csc(NC(=O)C2CC2(F)F)n1 (centres unmarked) [Compound I-173]
IC50: 100 to 1000 nM

O=C(Cc1ccc(S(=O)(=O)C(F)(F)F)cc1)Nc1nc(-c2sc(CO)nc2CO)cs1 [Compound I-174]
IC50: < 100 nM

Cc1nc(C)c(-c2csc(NC(=O)C3Cc4ccccc4N3C)n2)s1 (centres unmarked) [Compound I-175]
IC50: 100 to 1000 nM

Cc1nc(C)c(-c2csc(NC(=O)C3Cc4ccccc4N3C(=O)C(F)(F)F)n2)s1 (centres unmarked) [Compound I-176]
IC50: < 100 nM

Cc1nc(C)c(-c2csc(NC(=O)C3Cc4ccccc4N3)n2)s1 (centres unmarked) [Compound I-177]
IC50: 100 to 1000 nM

Cc1nc(C)c(-c2csc(NC(=O)[C@@H]3C[C@@H](c4ccccc4)CN3)n2)s1 [Compound I-178]
IC50: 100 to 1000 nM

Cc1nc(C)c(-c2csc(NC(=O)[C@@H]3C[C@H](c4ccccc4)CN3)n2)s1 [Compound I-179]
IC50: 1000 to 8000 nM

Cc1nc(C)c(-c2csc(NC(=O)C3Cc4ccccc4O3)n2)s1 (centres unmarked) [Compound I-180]
IC50: < 100 nM

CCNC(=O)c1nc(C)sc1-c1csc(NC(=O)Cc2c(F)cccc2F)n1 [Compound I-181]
IC50: 1000 to 8000 nM

Cc1nc(C(=O)NCCO)c(-c2csc(NC(=O)Cc3c(F)cccc3F)n2)s1 [Compound I-182]
IC50: 1000 to 8000 nM

Cc1nc(C)c(-c2csc(NC(=O)CN3CCC[C@@H](c4ccccc4)C3)n2)s1 [Compound I-183]
IC50: 100 to 1000 nM

Cc1nc(C)c(-c2csc(NC(=O)CN3CCC[C@H](c4ccccc4)C3)n2)s1 [Compound I-184]
IC50: < 100 nM

Cc1nc(CO)sc1-c1csc(NC(=O)C2CCN(c3ccccc3)C2)n1 (centres unmarked) [Compound I-185]
IC50: < 100 nM

Cc1nc(C(=O)NCCN(C)C)c(-c2csc(NC(=O)Cc3c(F)cccc3F)n2)s1 [Compound I-188]
IC50: 1000 to 8000 nM

Cc1nc(C)c(-c2csc(NC(=O)Cn3cc(C4(O)CCCCC4)nn3)n2)s1 [Compound I-189]
IC50: 1000 to 8000 nM

Cc1nc(C)c(-c2csc(NC(=O)Cn3cc(C4CCCCC4)nn3)n2)s1 [Compound I-190]
IC50: < 100 nM

Cc1nc(C)c(-c2csc(NC(=O)Cn3cc(-c4ccccc4)nn3)n2)s1 [Compound I-191]
IC50: < 100 nM

Cc1nc(C)c(-c2csc(NC(=O)[C@H]3C[C@H](c4ccccc4)CN3)n2)s1 [Compound I-192]
IC50: 1000 to 8000 nM

Cc1nc(C)c(-c2csc(NC(=O)[C@H]3C[C@@H](c4ccccc4)CN3)n2)s1 [Compound I-193]
IC50: 1000 to 8000 nM

Cc1nc(C)c(-c2csc(NC(=O)C3CCCN(S(=O)(=O)c4ccccc4)C3)n2)s1 (centres unmarked) [Compound I-194]
IC50: 1000 to 8000 nM

Cc1nc(C)c(-c2csc(NC(=O)C3Cc4ccc(Cl)c(Cl)c4O3)n2)s1 (centres unmarked) [Compound I-195]
IC50: < 100 nM

Cc1nc(C)c(-c2csc(NC(=O)C3Cc4cc(S(=O)(=O)N(C)C)c(Cl)c(Cl)c4O3)n2)s1 (centres unmarked) [Compound I-196]
IC50: < 100 nM

Cc1nc(C)c(-c2csc(NC(=O)C3CCN(S(=O)(=O)c4ccc(F)cc4)CC3)n2)s1 [Compound I-197]
IC50: 100 to 1000 nM

CCNCc1nc(C)sc1-c1csc(NC(=O)Cc2c(F)cccc2F)n1 [Compound I-198]
IC50: 100 to 1000 nM

Cc1nc(CO)sc1-c1csc(NC(=O)C2CC(=O)N(c3ccccc3)C2)n1 (centres unmarked) [Compound I-199]
IC50: 100 to 1000 nM

COc1ccc(N2CC(C(=O)Nc3nc(-c4sc(CO)nc4C)cs3)CC2=O)cc1 (centres unmarked) [Compound I-200]
IC50: 1000 to 8000 nM

Cc1nc(C)c(-c2csc(NC(=O)C3Cc4c([N+](=O)[O-])cc(Cl)c(Cl)c4O3)n2)s1 (centres unmarked) [Compound I-201]
IC50: < 100 nM

Cc1nc(CO)sc1-c1csc(NC(=O)[C@H]2C[C@H](F)C2)n1 [Compound I-202]
IC50: < 100 nM

Cc1nc(CO)sc1-c1csc(NC(=O)[C@H]2C[C@@H](F)C2)n1 [Compound I-203]
IC50: 1000 to 8000 nM

Cc1nc(CO)sc1-c1csc(NC(=O)C2CCN(c3ccc(Cl)cc3)C2)n1 (centres unmarked) [Compound I-204]
IC50: < 100 nM

Cc1nc(C)c(-c2csc(NC(=O)C3CC(C(C)(C)C)=NO3)n2)s1 (centres unmarked) [Compound I-205]
IC50: 100 to 1000 nM

Cc1nc(C)c(-c2csc(NC(=O)C3CC(c4ccccc4)=NO3)n2)s1 (centres unmarked) [Compound I-206]
IC50: 100 to 1000 nM

Cc1nc(CO)sc1-c1csc(NC(=O)C2CC(c3ccccc3)=NO2)n1 (centres unmarked) [Compound I-207]
IC50: 100 to 1000 nM

Cc1nc(CO)sc1-c1csc(NC(=O)C2CN(Cc3ccc(C(F)(F)F)cc3)C2)n1 [Compound I-208]
IC50: < 100 nM

Cc1nc(CO)sc1-c1csc(NC(=O)C2CCN(Cc3ccccc3)C2)n1 (centres unmarked) [Compound I-209]
IC50: 1000 to 8000 nM

Cc1nc(C)c(-c2csc(NC(=O)[C@@H]3C[C@@H](c4ccccc4)CN3C(=O)OC(C)(C)C)n2)s1 [Compound I-210]
IC50: < 100 nM

Cc1nc(C)c(-c2csc(NC(=O)[C@H]3CC[C@@H](c4ccccc4)N3C(=O)OC(C)(C)C)n2)s1 [Compound I-211]
IC50: 100 to 1000 nM

Cc1nc(C)c(-c2csc(NC(=O)[C@@H]3CC[C@H](c4ccccc4)N3C(=O)OC(C)(C)C)n2)s1 [Compound I-212]
IC50: < 100 nM

Cc1nc(CO)sc1-c1csc(NC(=O)C2CCN(CC(F)(F)F)C2)n1 (centres unmarked) [Compound I-213]
IC50: 100 to 1000 nM

Cc1nc(CO)sc1-c1csc(NC(=O)C2CCN(S(=O)(=O)C(F)(F)F)C2)n1 (centres unmarked) [Compound I-214]
IC50: 100 to 1000 nM

Cc1nc(C)c(-c2csc(NC(=O)[C@H]3CC[C@@H](c4ccccc4)N3)n2)s1 [Compound I-215]
IC50: 100 to 1000 nM

Cc1nc(C)c(-c2csc(NC(=O)[C@@H]3CC[C@H](c4ccccc4)N3)n2)s1 [Compound I-216]
IC50: 100 to 1000 nM

Cc1nc(C)c(-c2csc(NC(=O)[C@@H]3C[C@@H](c4ccccc4)CN3C)n2)s1 [Compound I-217]
IC50: 1000 to 8000 nM

Cc1nc(C)c(-c2csc(NC(=O)[C@@H]3C[C@@H](c4ccccc4)CN3C(=O)C(F)(F)F)n2)s1 [Compound I-218]
IC50: < 100 nM

CCN(CC)Cc1nc(CO)sc1-c1csc(NC(=O)Cc2ccc(S(=O)(=O)C(F)(F)F)cc2)n1 [Compound I-236]
IC50: 100 to 1000 nM

CCNCc1nc(CO)sc1-c1csc(NC(=O)Cc2ccc(S(=O)(=O)C(F)(F)F)cc2)n1 [Compound I-237]
IC50: 100 to 1000 nM

Cc1nc(CO)sc1-c1csc(NC(=O)C2CC(OCc3ccncc3)C2)n1 (centres unmarked) [Compound I-240]
IC50: 1000 to 8000 nM

Cc1nc(CO)sc1-c1csc(NC(=O)CN2Cc3ccccc3C2)n1 [Compound I-241]
IC50: 100 to 1000 nM

Cc1nc(C)c(-c2csc(NC(=O)[C@@H]3C[C@@H](Oc4ccccc4)CN3C(=O)OC(C)(C)C)n2)s1 [Compound I-242]
IC50: < 100 nM

Cc1nc(C)c(-c2csc(NC(=O)[C@H]3C[C@@H](c4ccccc4)CN3C(=O)OC(C)(C)C)n2)s1 [Compound I-243]
IC50: 100 to 1000 nM

Cc1nc(C)c(-c2csc(NC(=O)[C@@H]3C[C@@H](Oc4ccccc4)CN3)n2)s1 [Compound I-244]
IC50: 100 to 1000 nM

Cc1nc(C)c(-c2csc(NC(=O)[C@H]3C[C@H](c4ccccc4)CN3C(=O)OC(C)(C)C)n2)s1 [Compound I-245]
IC50: < 100 nM

Cc1nc(C)c(-c2csc(NC(=O)[C@@H]3C[C@H](c4ccccc4)CN3C(=O)OC(C)(C)C)n2)s1 [Compound I-246]
IC50: < 100 nM

Cc1nc(CO)sc1-c1csc(NC(=O)C2CC(OCc3cccnc3)C2)n1 (centres unmarked) [Compound I-247]
IC50: 1000 to 8000 nM

O=C(Nc1nc(-c2sc(CO)nc2CO)cs1)[C@H]1C[C@H](F)C1 [Compound I-248]
IC50: 1000 to 8000 nM

Cc1nc(C)c(-c2csc(NC(=O)[C@@H]3CCCN3C(=O)OC(C)(C)C)n2)s1 [Compound I-249]
IC50: 100 to 1000 nM

Cc1nc(C)c(-c2csc(NC(=O)[C@@H]3C[C@@H](Oc4ccccc4)CN3C(=O)C(F)(F)F)n2)s1 [Compound I-250]
IC50: < 100 nM

CC(=O)N1C[C@H](Oc2ccccc2)C[C@H]1C(=O)Nc1nc(-c2sc(C)nc2C)cs1 [Compound I-251]
IC50: 1000 to 8000 nM

Cc1nc(C)c(-c2csc(NC(=O)[C@@H]3C[C@@H](Oc4ccccc4)CN3C(=O)CO)n2)s1 [Compound I-252]
IC50: 1000 to 8000 nM

O=C(Nc1nc(-c2sc(CO)nc2CO)cs1)C1CCC(C(F)(F)F)CC1 (centres unmarked) [Compound I-253]
IC50: 100 to 1000 nM

O=C(Nc1nc(-c2sc(CO)nc2CO)cs1)C1CCC(C(F)(F)F)CC1 (centres unmarked) [Compound I-254]
IC50: < 100 nM

NC(=O)c1nc(CO)c(-c2csc(NC(=O)Cc3ccc(S(=O)(=O)C(F)(F)F)cc3)n2)s1 [Compound I-255]
IC50: 1000 to 8000 nM

Cc1nc(C)c(-c2csc(NC(=O)C3CN(C(=O)c4ccccc4)C3)n2)s1 [Compound I-256]
IC50: 1000 to 8000 nM

Cc1nc(C)c(-c2csc(NC(=O)C3CN(C(=O)c4ccc(C(F)(F)F)cc4)C3)n2)s1 [Compound I-257]
IC50: 100 to 1000 nM

Cc1nc(C)c(-c2csc(NC(=O)C3CN(Cc4ccc(C(F)(F)F)cc4)C3)n2)s1 [Compound I-258]
IC50: < 100 nM

Cc1nc(C)c(-c2csc(NC(=O)C3CN(c4ccc(C(F)(F)F)cn4)C3)n2)s1 [Compound I-259]
IC50: < 100 nM

Cc1nc(C)c(-c2csc(NC(=O)C3CN(Cc4ccccc4C(F)(F)F)C3)n2)s1 [Compound I-260]
IC50: < 100 nM

COC(=O)c1ccc(C(=O)N2CC(C(=O)Nc3nc(-c4sc(C)nc4C)cs3)C2)cc1 [Compound I-261]
IC50: 100 to 1000 nM

Cc1nc(C)c(-c2csc(NC(=O)C3CN(Cc4cccc(C(F)(F)F)c4)C3)n2)s1 [Compound I-262]
IC50: < 100 nM

COC(=O)c1ccc(CN2CC(C(=O)Nc3nc(-c4sc(C)nc4C)cs3)C2)cc1 [Compound I-263]
IC50: 100 to 1000 nM
